Results: article PMC7645381, “Development and application of a high-throughput screening assay for identification of small molecule inhibitors of the P. falciparum reticulocyte binding-like homologue 5 protein” (International Journal for Parasitology: Drugs and Drug …, 2020)
pIC50: −log10 of the molar value. Counter-ions that a name gives are not always drawn.

Assays:
Assay in all cases: biochemical
[1] = target: T1, P. falciparum Rh5 (Rh5 – basigin interaction) (Plasmodium falciparum, UniProt Q8IFM5); parameters: AlphaScreen of Rh5 - His-tagged basigin interaction with anti-Rh5 mAb beads; inhibition of luminescence signal; conditions: confirmation screen, duplicate
T1 sequence (Q8IFM5 24-526): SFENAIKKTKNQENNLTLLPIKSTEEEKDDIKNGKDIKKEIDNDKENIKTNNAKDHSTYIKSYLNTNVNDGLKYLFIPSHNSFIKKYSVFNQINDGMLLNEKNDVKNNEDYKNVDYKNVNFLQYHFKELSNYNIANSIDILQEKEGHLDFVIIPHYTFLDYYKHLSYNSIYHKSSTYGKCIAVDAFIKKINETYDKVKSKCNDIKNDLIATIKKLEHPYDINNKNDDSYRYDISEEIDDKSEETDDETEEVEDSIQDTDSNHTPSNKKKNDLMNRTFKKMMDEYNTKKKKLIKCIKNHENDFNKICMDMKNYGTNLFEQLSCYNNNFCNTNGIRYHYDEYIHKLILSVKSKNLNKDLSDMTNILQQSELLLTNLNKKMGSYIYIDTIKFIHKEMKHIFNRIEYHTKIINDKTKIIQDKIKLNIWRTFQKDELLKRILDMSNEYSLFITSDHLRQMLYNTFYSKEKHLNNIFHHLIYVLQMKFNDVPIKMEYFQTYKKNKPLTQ
Procedure: Using the Combi-multidrop, 5 μL of Rh5 stock solution (200 nM prepared in assay buffer) was added to columns 1–24 of the 384-well assay plate (Greiner 384-well white, low binding plate, #784904, Bioone). The PerkinElmer Janus automated dispensing system was then employed to transfer, via the pin-tool, 2 × 100 nL of the compound stock DMSO solution from the compound master plate to the assay plate. The plate was sealed and incubated for 30 min at room temperature. Using a Combi-multidrop, 5 μL of hexa-histidine tagged basigin stock solution (80 nM prepared in assay buffer) was then added to columns 1–23 and 5 μL assay buffer to column 24 of the 384-well assay plate. The plate was sealed again and incubated for 30 min at room temperature. A solution of AlphaScreen donor and acceptor beads (20 μg/mL prepared in assay buffer) plus anti-Rh5 mAb solution (2 μg/mL prepared in assay buffer) was prepared in assay buffer under subdued lighting. Using the Combi-multidrop, 10 μL of this solution was added to every well of the assay plate under subdued lighting. The plate was sealed with foil (plate max) and incubated at room temperature for 1 h. The assay plate was then analysed on the PerkinElmer Envision 2103 Multilabel Plate Reader (Ex 680, Em 520–620 nm). […] Historically, PPIs are notoriously difficult to target with small molecules. To enhance the likelihood of identifying an inhibitor of the Rh5 - basigin interaction the primary screen was conducted at a compound concentration of 20 μM. A 20 μM screening concentration is considered high, when compared to the commonly used primary screen concentrations of approximately 1–10 μM. […] To do this, a two-phase hit confirmation and counterscreen process was undertaken (Fig. 1). […] Both assays were undertaken at 10 μM in duplicate. The counterscreen assay was conducted using AlphaScreen TruHits.

[2] = target: T1, P. falciparum Rh5 (Rh5 – basigin interaction); parameters: AlphaScreen of Rh5 - His-tagged basigin interaction with anti-Rh5 mAb beads; inhibition of luminescence signal; conditions: primary pilot screen, single point
Procedure: Using the Combi-multidrop, 5 μL of Rh5 stock solution (200 nM prepared in assay buffer) was added to columns 1–24 of the 384-well assay plate (Greiner 384-well white, low binding plate, #784904, Bioone). The PerkinElmer Janus automated dispensing system was then employed to transfer, via the pin-tool, 2 × 100 nL of the compound stock DMSO solution from the compound master plate to the assay plate. The plate was sealed and incubated for 30 min at room temperature. Using a Combi-multidrop, 5 μL of hexa-histidine tagged basigin stock solution (80 nM prepared in assay buffer) was then added to columns 1–23 and 5 μL assay buffer to column 24 of the 384-well assay plate. The plate was sealed again and incubated for 30 min at room temperature. A solution of AlphaScreen donor and acceptor beads (20 μg/mL prepared in assay buffer) plus anti-Rh5 mAb solution (2 μg/mL prepared in assay buffer) was prepared in assay buffer under subdued lighting. Using the Combi-multidrop, 10 μL of this solution was added to every well of the assay plate under subdued lighting. The plate was sealed with foil (plate max) and incubated at room temperature for 1 h. The assay plate was then analysed on the PerkinElmer Envision 2103 Multilabel Plate Reader (Ex 680, Em 520–620 nm). The optimised Rh5 AlphaScreen assay was then validated for HT screening purposes by conducting a pilot screen using known drug library (from Prestwick, Tocris and LOPAC) and the MMV Malaria Box, comprising 3708 and 400 compounds (Fig. 1), respectively. Historically, PPIs are notoriously difficult to target with small molecules. To enhance the likelihood of identifying an inhibitor of the Rh5 - basigin interaction the primary screen was conducted at a compound concentration of 20 μM. A 20 μM screening concentration is considered high, when compared to the commonly used primary screen concentrations of approximately 1–10 μM. To follow-up on hit compounds from the pilot validation screen, we next wanted to confirm the activity of the primary hits. To do this, a two-phase hit confirmation and counterscreen process was undertaken (Fig. 1). In the first phase, the 231 primary hits from both libraries were evaluated in the Rh5 AlphaScreen assay and counterscreen assay. Both assays were undertaken at 10 μM in duplicate. The counterscreen assay was conducted using AlphaScreen TruHits. […] The 45 secondary hits can be viewed in the top left quadrant of Fig. S8. Of the 45 hits, 13 compounds originated from the Malaria Box and 32 compounds from the known drug library.

[3] = target: T1, P. falciparum Rh5 (Rh5 – basigin interaction); type: binding; conditions: for Rh5 inhibitory activity in the AlphaScreen assay: highest concentration tested 50 μM

Row | SMILES | inhibition at 10 µM ([1]; Batch Reference=01) | inhibition at 20 µM ([2]; Batch Reference=01) | Rh5 inhibitory activity in the AlphaScreen assay [3] | further results
1 | NC(Cc1cc(O)c(O)cc1O)C(=O)O (racemic) [WEHI-1215200, 6-Hydroxy-DL-DOPA] | 80.7% | 69.7% | – | –
2 | CC(=O)N1CCN(c2ccc(OC[C@@H]3CO[C@@](Cn4ccnc4)(c4ccc(Cl)cc4Cl)O3)cc2)CC1 (racemic) [WEHI-1215227, Ketoconazole] | – | – | – | inhibition at 20 µM ([2]; Batch Reference=02): 58.3%
3 | CCOC(=O)c1cc(=O)c2cccc(NC(=O)c3ccc(OCc4ccccc4)cc3)c2o1 [Compound 11, Ethyl 8-(4-(benzyloxy)benzamido)-4-oxo-4H-chromene-2-carboxylate] | – | – | – | pIC50 [3]: < 4.30
4 | CCOC(=O)c1cc(=O)c2cccc(NC(=O)c3ccc(OCCc4ccccc4)cc3)c2o1 [Compound 12, Ethyl 4-oxo-8-(4-phenethoxybenzamido)-4H-chromene-2-carboxylate] | – | – | – | pIC50 [3]: < 4.30
5 | CCOC(=O)c1cc(=O)c2cccc(NC(=O)c3ccc(OCCCCc4ccccc4)cc3)c2o1 [Compound 14, Ethyl 4-oxo-8-(4-(4-phenylbutoxy)benzamido)-4H-chromene-2-carboxylate] | – | – | – | pIC50 [3]: < 4.30
6 | O=C(Nc1cccc2c(=O)cc(C(=O)O)oc12)c1ccc(OCc2ccccc2)cc1 [Compound 15, 8-(4-(Benzyloxy)benzamido)-4-oxo-4H-chromene-2-carboxylic acid] | – | – | No activity | pIC50 [3]: < 4.30
7 | CCOC(=O)c1cc(=O)c2cccc(NC(=O)c3ccc(OC)cc3)c2o1 [Compound 20, Ethyl 8-(4-methoxybenzamido)-4-oxo-4H-chromene-2-carboxylate] | – | – | – | pIC50 [3]: < 4.30
8 | CN(C)C(=O)CCSC(SCCC(=O)O)c1cccc(/C=C/c2ccc3ccc(Cl)cc3n2)c1 (centres unmarked) [MK 571, reference compound] | – | – | did not show Rh5 inhibitory activity | –
9 | Br.CN1CCc2cc(O)cc3c2[C@H]1Cc1ccc(O)c(O)c1-3 [R(-)-2,10,11-trihydroxyaporphine, reference compound] | – | – | not active | –
10 | CN1CCc2cccc3c2[C@H]1Cc1ccc(O)c(O)c1-3 [R(-)-apomorphine, reference compound] | – | – | not active | –
11 | CCCN1CCc2cccc3c2[C@H]1Cc1ccc(O)c(O)c1-3 [R(-)-propylnorapomorphine, reference compound] | – | – | not active | –
12 | COC(=O)C1=C(C)NC(C)=C(C(=O)OC)C1c1ccccc1[N+](=O)[O-] [WEHI-0104145, Nifedipine] | – | – | – | inhibition at 10 µM ([1]; Batch Reference=02): 81.1%; inhibition at 10 µM ([1]; Batch Reference=03): 75.7%; inhibition at 20 µM ([2]; Batch Reference=02): 55.3%; inhibition at 20 µM ([2]; Batch Reference=03): 57.3%
13 | CN1CCc2cccc3c2[C@H]1Cc1ccc(O)c(O)c1-3 [WEHI-1214737, Apomorphine hydrochloride hemihydrate] | – | – | – | % Inhibition Confirmation ([1]; Batch Reference=01, 10 µM, inhibitor, % Inhibition Confirmation): 72.2885%; % Inhibition Pilot ([2]; Batch Reference=01, 20 µM, inhibitor, % Inhibition Pilot): 62.755%
14 | CCCN1CCc2cccc3c2[C@H]1Cc1ccc(O)c(O)c1-3 [WEHI-1215034, R(-)-Propylnorapomorphine hydrochloride] | 84.9% | 83% | – | –
15 | CN1CCc2cc(O)cc3c2[C@H]1Cc1ccc(O)c(O)c1-3 [WEHI-1215043, R(-)-2,10,11-Trihydroxyaporphine hybrobromide] | 84.7% | 62.6% | – | –
16 | CCCN1CCc2cc(O)cc3c2[C@H]1Cc1ccc(O)c(O)c1-3 [WEHI-1215052, R(-)-2,10,11-Trihydroxy-N-propylnoraporphine hydrobromide] | 87.2% | 69.8% | – | –
17 | CC#C[C@]1(O)CC[C@H]2[C@@H]3CCC4=CC(=O)CCC4=C3[C@@H](c3ccc(N(C)C)cc3)C[C@@]21C [WEHI-1215337, Mifepristone] | 91.7% | 75.3% | – | inhibition at 10 µM ([1]; Batch Reference=03): 96.5%; inhibition at 20 µM ([2]; Batch Reference=03): 76.6%
18 | C[n+]1cc2c3c(ccc2c2ccc4cc5c(cc4c21)OCO5)OCO3 [WEHI-1215580, Sanguinarine chloride] | 99% | 70.3% | – | –
19 | COCCCOc1ccnc(C[S+]([O-])c2nc3ccccc3[nH]2)c1C (centres unmarked) [rabeprazole, reference compound] | – | – | not active | –
